Laboratory results published in patent US20240180893A1, “METHODS OF TREATMENT OF BREAST CANCER” (AstraZeneca AB, priority 2022, published 2024).

Experiments:
[1] = test system: HR+, HER2− metastatic or loco-regionally recurrent breast cancer; test: SERENA-2 phase 2 study: progression free survival (PFS), RECIST 1.1, assessed by Investigator; assay type: in vivo, human (post-menopausal women)
Excerpt: In embodiments of the present speciation the method of treatments, ngSERD for use in treatment or for use in the manufacture of a medicament, kit or pharmaceutical composition for use delivers an improvement in the time to disease progression or progression free survival (PFS) relative to that obtained from use of fulvestrant (the first generation SERD). In such embodiment the PFS improvement is relative to that observed with standard of care, i.e. fulvestrant administered at the approved dose of 500 mg once monthly by injection. Clinical activity as assessed by PFS can be determined by the standard assessment of tumour response as per RECIST 1.1 (Eisenhauser et al., Eur J Cancer 2009 January; 45(2):228-47). The RECIST criteria can be evaluated by the treating physician/investigator or by Blinded Independent Central Review (BICR).
In the SERENA-2 clinical trial, further details of which are provided below, the efficacy of camizestrant administered once daily in tablet form at doses of 75 mg and 150 mg as a treatment for patients with HR+, HER2− metastatic or loco-regionally recurrent breast cancer that the breast cancer has recurred or progressed following at least one prior line of endocrine therapy was assessed. The control arm patient in this study were treated with standard of care fulvestrant, the first generation SERD, administered as once monthly 500 mg injection. The study was powered to differentiate between the camizestrant and standard of care, fulvestrant (F), treatment arms, but was not powered to differentiate between the 75 mg and 150 mg camizestrant dose cohorts.
A randomised, open-label, parallel-group, multicentre phase 2 study comparing the efficacy and safety of oral AZD9833 versus fulvestrant in women with advanced er-positive her2-negative breast cancer was carried out according to the following protocol and schedule of activities. The study evaluated the efficacy and safety of AZD9833 (75, 150 and 300 mg, oral [PO]) administered once daily as a monotherapy in comparison with fulvestrant administered according to its label (i. e., slow IM injection into the buttocks [1 to 2 minutes per injection] as two 5-mL injections, 1 in each buttock, on Day 1, Day 15, Day 29 and 4-weekly thereafter).
This is a randomised, open-label, parallel-group, multicentre Phase 2 study to compare the efficacy and safety of daily PO AZD9833 versus IM fulvestrant in women with advanced ER positive HER2 negative breast cancer. Post-menopausal women with histologically or cytologically confirmed metastatic or loco-regionally recurrent disease before randomisation and fulfilling all of the inclusion criteria and none of the exclusion criteria will be included. Randomisation will be stratified according to the prior use of CDK4/6 inhibitors and the presence of liver and/or lung metastases.
After the screening visit and confirmation of eligibility, patients will be randomly assigned in a 1:1:1:1 ratio to receive 1 of the following 4 treatments, consisting in 4-week treatment cycles until disease progression (assessed by the Investigator as defined by Response Evaluation Criteria in Solid Tumours [RECIST] version 1.1): • AZD9833 (75 mg, PO, once daily) • AZD9833 (150 mg, PO, once daily) • AZD9833 (300 mg, PO, once daily) • Fulvestrant (500 mg IM, Day 1, Day 15, Day 29, and 4-weekly thereafter)
Efficacy assessments. Assessment of tumour response. The assessment of tumour response per RECIST version 1.1 will be used to determine the clinical activity (assessed by PFS) and anti-tumour activity (assessed by ORR, clinical benefit rate [CBR]) of AZD9833 and fulvestrant.
Investigator's assessment of tumour response per RECIST version 1.1. Tumour response will be assessed by the Investigators per RECIST version 1.1 (Eisenhauer et al. 2009). From the Investigator's review of the imaging scans, the evaluation of TLs, NTLs and new lesions will be used to determine the overall visit response for each patient. […]

[2] = test system: HR+, HER2− metastatic or loco-regionally recurrent breast cancer; test: SERENA-2 phase 2 study: clinical benefit rate at 24 weeks (CBR24); assay type: in vivo, human (post-menopausal women); conditions: for Adjusted CBR24 rate (%): logistic regression, factors prior CDK4/6 inhibitor and lung and/or liver metastasis; for CBR24: comparison against fulvestrant, odds ratio: odds ratio > 1 favors AZD9833
Excerpt: (§1) The CBR24 is defined as the percentage of patients who have a best objective response (BoR) of CR or PR in the first 25 weeks (to allow for a late assessment within the assessment window) or who have SD (without subsequent cancer therapy) for at least 23 weeks after start of treatment (to allow for an early assessment within the assessment window). The CBR is defined based on the Investigator's assessment of RECIST 1.1.
The CBR24 will be summarised by treatment group and analysed using a logistic regression model (similarly to the analysis for the ORR).
as §1, with “Secondary endpoints: clinical benefit rate at 24 weeks. The CBR24” for “The CBR24”, “The CBR will be defined based” for “The CBR is defined based”, “assessment of RECIST, and will be summarised by treatment group and analysed using a logistic regression model (similarly to the analysis for the ORR).” for “assessment of RECIST 1.1.”

[3] = camizestrant 75 mg once daily, all patients, by Investigator
[4] = camizestrant 75 mg, subgroup with metastases to the liver and/or lungs
[5] = camizestrant 75 mg, subgroup with prior CDK4/6 inhibitor therapy
[6] = camizestrant 150 mg once daily, all patients, by Investigator
[7] = camizestrant 150 mg, subgroup with metastases to the liver and/or lungs
[8] = camizestrant 150 mg, subgroup with prior CDK4/6 inhibitor therapy
[9] = fulvestrant 500 mg once monthly injection, all patients, by Investigator
[10] = fulvestrant 500 mg, ESR1m subgroup
[11] = fulvestrant 500 mg, subgroup with metastases to the liver and/or lungs
[12] = fulvestrant 500 mg, subgroup with prior CDK4/6 inhibitor therapy

## C[C@@H]1Cc2c(ccc3[nH]ncc23)[C@@H](c2ccc(NC3CN(CCCF)C3)cn2)N1CC(F)(F)F [camizestrant, N-(1-(3-fluoropropyl)azetidin-3-yl)-6-((6S,8R)-8-methyl-7-(2,2,2-trifluoroethyl)-6,7,8,9-tetrahydro-3H-pyrazolo[4,3-f]isoquinolin-6-yl)pyridin-3-amine]
[1]; AZD9833 75 mg (n = 22), subgroup with mutation to the estrogen receptor (ESR1m)
  PFS events [no.]: 15
[1]; AZD9833 75 mg, ESR1m subgroup
  Hazard ratio vs fulvestrant: 0.33
  Median PFS: 6.3 months
  PFS events (%): (68.2) %
[1]; AZD9833 150 mg (n = 26), subgroup with mutation to the estrogen receptor (ESR1m)
  PFS events [no.]: 22
[1]; AZD9833 150 mg, ESR1m subgroup
  Hazard ratio vs fulvestrant: 0.55
  Median PFS: 9.2 months
  PFS events (%): (84.6) %
[1]; both camizestrant arms (75 mg and 150 mg), all comer population, by either Investigator or BICR
  Improvement of PFS over fulvestrant: at least 3.5 months
[1]; camizestrant 75 mg (n = 38), subgroup with prior CDK4/6 inhibitor therapy
  PFS events [n]: 29
[1]; camizestrant 75 mg (n = 43), subgroup with metastases to the liver and/or lungs
  PFS events [no.]: 31
[1]; [3]
  Hazard ratio for disease progression relative to fulvestrant: 0.58
  Proportion of patients without progression at 12 m: 34.3%
[1]; camizestrant 75 mg tablet once daily, all patients, by Investigator
  Median PFS: 7.2 months
[1]; [4]
  Hazard ratio vs fulvestrant: 0.43
  Median PFS: 7.2 months
  PFS events (%): (72.1) %
[1]; [5]
  Hazard ratio vs fulvestrant: 0.49
  Median PFS: 5.5 months
  PFS events (%): (76.3) %
[1]; camizestrant 150 mg (n = 37), subgroup with prior CDK4/6 inhibitor therapy
  PFS events [n]: 29
[1]; camizestrant 150 mg (n = 43), subgroup with metastases to the liver and/or lungs
  PFS events [no.]: 32
[1]; [6]
  Hazard ratio for disease progression relative to fulvestrant: 0.67
  Proportion of patients without progression at 12 m: 44.5%
[1]; camizestrant 150 mg tablet once daily, all patients, by Investigator
  Median PFS: 7.7 months
[1]; [7]
  Hazard ratio vs fulvestrant: 0.55
  Median PFS: 5.6 months
  PFS events (%): (74.4) %
[1]; [8]
  Hazard ratio vs fulvestrant: 0.68
  Median PFS: 3.8 months
  PFS events (%): (78.4) %
[2]; AZD9833 75 mg
  (%) of patients with clinical benefit at 24 weeks: 48.6%
  Adjusted CBR24 rate (%): 50.4%
  CBR24: comparison against fulvestrant, odds ratio: 1.73
[2]; AZD9833 75 mg, N=70 evaluable
  Number of patients with clinical benefit at 24 weeks: 34
[2]; AZD9833 150 mg
  (%) of patients with clinical benefit at 24 weeks: 52.3%
  Adjusted CBR24 rate (%): 55.2%
  CBR24: comparison against fulvestrant, odds ratio: 2.09
[2]; AZD9833 150 mg, N=65 evaluable
  Number of patients with clinical benefit at 24 weeks: 34

## C[C@]12CC[C@@H]3c4ccc(O)cc4C[C@@H](CCCCCCCCC[S+]([O-])CCCC(F)(F)C(F)(F)F)[C@H]3[C@@H]1CC[C@@H]2O (some centres unmarked) [fulvestrant, reference compound]
[1]; fulvestrant 500 mg (n = 35), subgroup with mutation to the estrogen receptor (ESR1m)
  PFS events [no.]: 31
[1]; fulvestrant 500 mg (n = 37), subgroup with prior CDK4/6 inhibitor therapy
  PFS events [n]: 33
[1]; fulvestrant 500 mg (n = 43), subgroup with metastases to the liver and/or lungs
  PFS events [no.]: 39
[1]; [9]
  Median PFS: 3.7 months
  Proportion of patients without progression at 12 m: 23.8%
[1]; [10]
  Median PFS: 2.2 months
  PFS events (%): (88.6) %
[1]; [11]
  Median PFS: 2.0 months
  PFS events (%): (90.7) %
[1]; [12]
  Median PFS: 2.1 months
  PFS events (%): (89.2) %
[2]; fulvestrant
  (%) of patients with clinical benefit at 24 weeks: 36.8%
  Adjusted CBR24 rate (%): 37.1%
[2]; fulvestrant, N=68 evaluable
  Number of patients with clinical benefit at 24 weeks: 25
